Values after ≈ are worked out from the molar mass of the structure shown. Where two headings read alike, the source gives them in different places. Peptide text beside a SMILES is read from it.
Key:
Mabs 19977R = details: 96 h
Description: (§1) In order to determine effects on Mabs viability, microdilution antimicrobial assays were performed in MHB.

Mabs 19977S = details: purified peptide, MHB with EDTA (100 μM), 96 h, 37° C.
Description: as §1

[1] = test system: E. coli clinical isolates
From the text: (approved by Mayo Clinic Biospecimen Subcommittee BIO00015462).

E. coli ATCC 25922 = assay type: cell-based, Escherichia coli; details: ATCC 25922, 22 h
Description: Samples were serially diluted in MHB to ˜10^5 CFU/ml and added to a 96-well polystyrene plate prepared with ASU2060 (128-4 μM). After incubation for 22 h at 37° C., the OD600 was measured using a SpectraMax M2 microplate reader (Molecular Devices, San Jose, Calif., USA). Values were normalized to the medium blank (MHB) and E. coli (ATCC 25922) treated with nitrofurantoin at 64 μM.

[2] = test system: human red blood cell (hRBC); experiment: Human red blood cell (hRBC) hemolytic assay; assay type: cell-based
Description: To determine if the purified, Mabs inhibitory peptides were toxic, human red blood cell (hRBC) hemolytic assays were performed. Peptides (at 1×, 2×, and 4× their respective Mabs 19977S MICs) were added to 4% hRBC in saline and statically incubated for 1 h or 18 h at 37° C. […] Following incubation, the peptide-hRBC mixtures and the 1% Triton X-100 positive controls were centrifuged for 1 min at 1,000×g to pellet the intact hRBC. The supernatant for each experimental mixture and control was removed, and OD475 measurements were recorded to determine the percentage of lysed hRBC. The percentage of hemolytic activity was normalized by comparing the supernatant absorbance of all conditions tested to an equivalent number of hRBC lysed with 1% Triton X-100 (Eq. 1) (50).

[3] = test system: Mabs 19977R (rough morphotype); experiment: Growth inhibition screen with unpurified peptides in M7H9, MHB, CAMHB; assay type: cell-based, Mycobacterium abscessus; details: unpurified peptide 100 μM
Description: (§2) Mabs ATCC 19977 smooth morphotype (Mabs 19977S) cells were cultured at 37° C. in Middlebrook 7H9 supplemented with albumin, dextrose, and catalase (ADC) (10%), Tween 80 (0.05%), and glycerol (0.2%) (herein referred to as M7H9). Mabs 19977S was exposed to clarithromycin (8 μg/ml) in M7H9 for 24 h at 37° C., subjected to serial dilutions and plated on Middlebrook 7H10 agar supplemented with oleic acid, albumin, dextrose, and catalase (OADC) (herein referred to as M7H10). After 5 d incubation at 37° C., a single, isolated colony displaying a rough morphotype (Mabs 19977R) was detected, grown, and stored at −70° C. Mabs 19977S and Mabs 19977R were grown for approximately 32 h at 37° C., diluted 1:100 in fresh, pre-warmed M7H9, and grown for an additional 14 h until the cultures reached early-to-mid-logarithmic phase (OD600=0.2-0.3).
(§3) Bacteria grown in M7H9, MHB, and cation-adjusted MHB (CAMHB) were used to identify unpurified peptides with inhibitory activity against Mabs 19977S and Mabs 19977R. Peptides (50-65% purity) were synthesized by Sigma Aldrich (St. Louis, Mo.) PEPscreen Custom Peptide Libraries. Mabs ATCC 19977S and ATCC 19977R mid-logarithmic phase cultures were centrifuged (3,715×g) for 2 min, washed in pre-warmed M7H9, re-suspended in M7H9, MHB, or CAMHB, and diluted to 10^6 CFU/ml. In a 96-well polystyrene microtiter plate, media (M7H9, MHB, or CAMHB), unpurified peptides (100 μM or 10 μM), ethylenediaminetetraacetic acid (EDTA) (100 μM), and cells (Mabs 19977S or Mabs 19977R) (10^5 CFU/ml) were added. EDTA was added to determine if metal ion chelation would alter peptide activity. Clarithromycin (4 μg/ml) was used as an antibiotic positive control. The 96-well microtiter plates were statically incubated at 37° C. for 72 h. The OD600 was measured every 24 h using a SpectraMax M2 microplate reader (Molecular Devices, San Jose, Calif., USA). Peptides that reduced Mabs growth by ≥50%, when compared to the growth control OD600, were considered active.
(§4) In culture medium with cation supplementation (CAMHB), ASU2060 (100 μM) had activity against both morphotypes when EDTA was added (FIG. 2F). […] There were no peptides with inhibitory activity in CAMHB without EDTA (FIG. 2E).

[4] = test system: Mabs 19977S (Mabs ATCC 19977 smooth morphotype); experiment: as above; assay type: cell-based, Mycobacterium abscessus; details: unpurified peptide 100 μM
Description: as §2, §3, §4

[5] = purified peptide, MHB with EDTA (100 μM), 37° C.

Row | Molecule | MIC (Mabs 19977S) [µM] | activity (growth reduced by ≥50% vs growth control OD600) ([3]; M7H9, with EDTA (100 μM)) | activity (growth reduced by ≥50% vs growth control OD600) ([3]; MHB, with EDTA) | activity (growth reduced by ≥50% vs growth control OD600) ([4]; M7H9, with EDTA (100 μM)) | activity (growth reduced by ≥50% vs growth control OD600) ([4]; MHB, with EDTA) | further results
1 | CC(C)C[C@@H](NC(=O)CNC(=O)[C@H](CO)NC(=O)[C@@H](CCCCN)NC(=O)[C@@H](CCCNC(=N)N)NC(=O)[C@@H](Cc1c[nH]c2ccccc12)NC(=O)[C@@H](CCCNC(=N)N)NC(=O)[C@H](Cc1ccccc1)NC(=O)[C@H](CC(N)=O)NC(=O)[C@H](Cc1ccc(O)cc1)NC(=O)[C@@H](CCCNC(=N)N)NC(=O)[C@H](C)NC(=O)[C@H](CO)NC(=O)[C@@H](Cc1c[nH]c2ccccc12)NC(=O)[C@@H](CCCNC(=N)N)NC(=O)CNC(=O)[C@@H](N)C(C)C)C(N)=O [ASU2060, VGrwSArYNFrwrkSGl] (HELM PEPTIDE1{V.G.[dR].[dW].S.A.[dR].Y.N.F.[dR].[dW].[dR].[dK].S.G.[dL].[am]}$$$$V2.0; N-terminus and C-terminus assumed) | 8 (≈ 17.1 µg/mL) | – | – | – | – | IC50 (Mabs 19977R; [5]): 13 µM; ASU2060 MIC ([1]; E. coli clinical isolate 23): 8 µM; ASU2060 MIC ([1]; E. coli clinical isolate 36): 8 µM; ASU2060 MIC ([1]; E. coli clinical isolate 45): 8 µM; ASU2060 MIC ([1]; E. coli clinical isolate 47): 8 µM; ASU2060 MIC ([1]; E. coli clinical isolate 97): 8 µM; ASU2060 MIC ([1]; E. coli clinical isolate 98): 8 µM; MIC (E. coli ATCC 25922): 4 µM (≈ 8.55 µg/mL)
2 | Triton X-100 [reference compound] | – | – | – | – | – | hRBC lysis by positive control ([2]; Triton X-100 1%, 4% hRBC): complete hRBC lysis
3 | CC(C)C[C@@H](NC(=O)[C@@H](C)NC(=O)CNC(=O)[C@@H](CC(C)C)NC(=O)[C@@H](CCCCN)NC(=O)[C@@H](CCCNC(=N)N)NC(=O)[C@@H](CCCNC(=N)N)NC(=O)[C@H](CC(N)=O)NC(=O)[C@H](Cc1ccc(O)cc1)NC(=O)[C@@H](CCCNC(=N)N)NC(=O)[C@H](C)NC(=O)[C@H](CO)NC(=O)[C@@H](CCCNC(=N)N)NC(=O)CNC(=O)[C@@H](N)Cc1ccc(O)cc1)C(=O)N[C@@H](CO)C(=O)NCC(=O)O [ASU2059, YGrSArYNrrklGalSG] (HELM PEPTIDE1{Y.G.[dR].S.A.[dR].Y.N.[dR].[dR].[dK].[dL].G.[dA].[dL].S.G}$$$$V2.0) | – | exhibited activity | maintained activity | exhibited activity | maintained activity | –
4 | CC(C)C[C@@H](NC(=O)CNC(=O)[C@@H](Cc1c[nH]c2ccccc12)NC(=O)[C@@H](CCCNC(=N)N)NC(=O)[C@@H](N)CCC(N)=O)C(=O)N[C@@H](CO)C(=O)N[C@H](CC(C)C)C(=O)N[C@@H](C)C(=O)N1CCC[C@H]1C(=O)N[C@@H](Cc1ccc(O)cc1)C(=O)N[C@H](CCCCN)C(=O)N[C@@H](CC(N)=O)C(=O)N[C@@H](Cc1ccccc1)C(=O)N[C@H](CCCNC(=N)N)C(=O)N[C@H](CCCNC(=N)N)C(=O)N[C@H](CC(C)C)C(=O)N[C@@H](CO)C(N)=O [ASU2056, QrwGlSlAPYkNFrrlS] (HELM PEPTIDE1{Q.[dR].[dW].G.[dL].S.[dL].A.P.Y.[dK].N.F.[dR].[dR].[dL].S.[am]}$$$$V2.0; N-terminus and C-terminus assumed) | 32 (≈ 66.9 µg/mL) | – | – | – | – | IC50 (Mabs 19977R; [5]): 45 µM; relative hRBC toxicity among the six peptides [2]: the least toxicity
5 | CC(C)C[C@@H](NC(=O)[C@@H](C)NC(=O)[C@@H](CCCCN)NC(=O)[C@@H](CCCNC(=N)N)NC(=O)[C@H](Cc1ccccc1)NC(=O)[C@H](CCC(N)=O)NC(=O)[C@H](CC(N)=O)NC(=O)[C@@H](NC(=O)[C@@H](CCCCN)NC(=O)[C@@H](CCCNC(=N)N)NC(=O)[C@H](C)NC(=O)[C@@H](CCCCN)NC(=O)[C@H](CO)NC(=O)[C@@H](CC(C)C)NC(=O)CNC(=O)[C@H](Cc1ccc(O)cc1)NC(=O)[C@H](N)CCCNC(=N)N)C(C)C)C(N)=O [ASU2009, rYGlSkArkVNQFrkal] (HELM PEPTIDE1{[dR].Y.G.[dL].S.[dK].A.[dR].[dK].V.N.Q.F.[dR].[dK].[dA].[dL].[am]}$$$$V2.0) | – | exhibited activity | maintained activity | exhibited activity | maintained activity | –
6 | CC(C)C[C@@H](NC(=O)[C@@H](C)NC(=O)[C@H](CO)NC(=O)[C@@H](CCCCN)NC(=O)[C@@H](CCCNC(=N)N)NC(=O)[C@@H](CCCNC(=N)N)NC(=O)[C@H](Cc1ccccc1)NC(=O)[C@@H](CC(C)C)NC(=O)[C@H](CC(N)=O)NC(=O)[C@H](Cc1c[nH]cn1)NC(=O)[C@@H]1CCCN1C(=O)[C@H](C)NC(=O)[C@H](CO)NC(=O)[C@@H]1CCCN1C(=O)CNC(=O)[C@@H](NC(=O)[C@H](N)CCCNC(=N)N)C(C)C)C(N)=O [ASU2019] (HELM PEPTIDE1{[dR].V.G.P.S.A.P.H.N.[dL].F.[dR].[dR].[dK].S.[dA].[dL].[am]}$$$$V2.0; N-terminus and C-terminus assumed) | 256 (≈ 488 µg/mL) | – | – | – | – | IC50 (Mabs 19977R): 76 to 82 µM; relative hRBC toxicity among the six peptides [2]: the most toxicity
7 | CC(C)[C@H](NC(=O)[C@@H](CCCCN)NC(=O)[C@H](C)NC(=O)[C@@H](C)NC(=O)[C@@H](CCCCN)NC(=O)[C@H](CO)NC(=O)[C@@H](CCCNC(=N)N)NC(=O)CNC(=O)[C@H](CC(N)=O)NC(=O)[C@H](Cc1ccccc1)NC(=O)[C@@H](N)CCC(N)=O)C(=O)N[C@@H](CC(N)=O)C(=O)N[C@@H](Cc1ccccc1)C(=O)N[C@H](Cc1c[nH]c2ccccc12)C(=O)N[C@H](CCCNC(=N)N)C(=O)N[C@H](CCCCN)C(=O)N[C@H](C)C(=O)O [ASU2001, QFNGrSkaAkVNFwrka] (HELM PEPTIDE1{Q.F.N.G.[dR].S.[dK].[dA].A.[dK].V.N.F.[dW].[dR].[dK].[dA]}$$$$V2.0) | – | exhibited activity | maintained activity | exhibited activity | maintained activity | activity (growth reduced by ≥50% vs growth control OD600) ([3]; M7H9, without EDTA): exhibited activity

— patent publication US11752195B2, “Compositions and methods of use of synthetic peptides with Mycobacterium abscessus inhibitory activity” (priority 2021, dated 2023)
